# Legend:
# [1] = compound: COc1cc2ncnc(Nc3ccc(F)c(Cl)c3)c2cc1OCCCN1CCOCC1 [Gefitinib]; conditions: max 10 µM
# Method in brief: (§1)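 Following 24 hours at 37°C and 5% CO2, cancer cell lines in 1536-well plates with 7.5 μl DMEM/F12 or RPMI and 10% FBS were dosed for 72 hours, final DMSO typically being 0.2%. CellTiter-Glo 2.0 luminescence, scaled between blank-well and DMSO-well means, gave the viability readout. Dose responses were fitted to a two-parameter logistic curve with a non-linear mixed effects model, and the single-agent IC50 was derived from this fit.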
# [2] = compound: CC(=O)c1c(C)c2cnc(Nc3ccc(N4CCNCC4)cn3)nc2n(C2CCCC2)c1=O [Palbociclib]; conditions: max 10 µM
# Method in brief: as §1
# [3] = compound: CC(=O)Nc1cccc(-n2c(=O)n(C3CC3)c(=O)c3c(Nc4ccc(I)cc4F)n(C)c(=O)c(C)c32)c1 [Trametinib]; conditions: max 1 µM
# Method in brief: as §1
# [4] = compound: C=CCn1c(=O)c2cnc(Nc3ccc(N4CCN(C)CC4)cc3)nc2n1-c1cccc(C(C)(C)O)n1 [AZD1775]; conditions: max 3 µM
# Method in brief: as §1
# [5] = compound: C[C@@H](Nc1cc(F)cc(F)c1)c1cc(C(=O)N(C)C)cc2c(=O)cc(N3CCOCC3)oc12 [AZD8186]
# Method in brief: as §1
# [6] = compound: Nc1ccn([C@@H]2O[C@H](CO)[C@@H](O)C2(F)F)c(=O)n1 [Gemcitabine]; conditions: max 0.3 µM
# Method in brief: as §1
# [7] = compound: CN(C)CCCOc1ccc(-c2ccc3ncc4c(c3c2)n(C2CCOCC2)c(=O)n4C)cn1 [AZD0156]; conditions: max 3 µM
# Method in brief: as §1
# [8] = compound: CC1(C)CCC(CN2CCN(c3ccc(C(=O)NS(=O)(=O)c4ccc(NCC5CCOCC5)c([N+](=O)[O-])c4)c(Oc4cnc5[nH]ccc5c4)c3)CC2)=C(c2ccc(Cl)cc2)C1 [Venetoclax]; conditions: max 1 µM
# Method in brief: as §1
# [9] = compound: N#Cc1cnc(Nc2cc(NC[C@H]3CNCCO3)c(C(F)(F)F)cn2)cn1 [SRA737]; conditions: max 10 µM
# Method in brief: as §1
# [10] = compound: NC1(c2ccc(-c3nc4ccn5c(=O)[nH]nc5c4cc3-c3ccccc3)cc2)CCC1 [MK-2206]; conditions: max 10 µM
# Method in brief: as §1
# [11] = compound: CCN(CCO)CCCOc1ccc2c(Nc3cc(CC(=O)Nc4cccc(F)c4)[nH]n3)ncnc2c1 [AZD2811]; conditions: max 1 µM
# Method in brief: as §1
# [12] = compound: C[C@@H](c1ccc2nccn2c1)n1nnc2ncc(-c3cnn(C)c3)nc21 [Savolitinib]; conditions: max 1 µM
# Method in brief: as §1
# [13] = compound: Cc1cc2ncnn2cc1Nc1ncc2c(n1)n(C1CCOCC1)c(=O)n2C [AZD7648]; conditions: max 10 µM
# Method in brief: as §1
# [14] = compound: O=C(Nc1ccc2[nH]nc(-c3ccncc3)c2c1)[C@@H]1CCN(CC(=O)N2CCN(c3ccc(-c4ncccn4)cc3)CC2)C1; conditions: max 5 µM
# Method in brief: as §1
# [15] = compound: O=c1[nH]cc(F)c(=O)[nH]1 [5-Fluorouracil]; conditions: max 20 µM
# Method in brief: as §1
# [16] = compound: CS(=O)(=O)CCNCc1ccc(-c2ccc3ncnc(Nc4ccc(OCc5cccc(F)c5)c(Cl)c4)c3c2)o1 [Lapatinib]; conditions: max 10 µM
# Method in brief: as §1
# [17] = compound: C[C@@H](Oc1cc(-c2cnn(C3CCNCC3)c2)cnc1N)c1c(Cl)ccc(F)c1Cl [Crizotinib]; conditions: max 10 µM
# Method in brief: as §1
# [18] = compound: CCc1c2c(nc3ccc(O)cc13)-c1cc3c(c(=O)n1C2)COC(=O)[C@]3(O)CC [SN-38]; conditions: max 0.3 µM
# Method in brief: as §1
# [19] = compound: Cc1nc(-c2cn3c(n2)-c2ccc(-c4cnn(C(C)(C)C(N)=O)c4)cc2OCC3)n(C(C)C)n1 [Taselisib]; conditions: max 10 µM
# Method in brief: as §1
# [20] = compound: CC1=C(C(=CC=C1)Cl)NC(=O)C2=CN=C(S2)NC3=CC(=NC(=N3)C)N4CCN(CC4)CCO [Dasatinib]; conditions: max 2 µM
# Method in brief: as §1
# [21] = compound: COc1cc(Nc2ncc3c(n2)-c2ccc(Cl)cc2C(c2c(F)cccc2OC)=NC3)ccc1C(=O)O [Alisertib]; conditions: max 10 µM
# Method in brief: as §1
# [22] = compound: COc1cccc(OCCCN)c1-c1cc(Nc2cnc(C#N)cn2)n[nH]1 [Prexasertib]; conditions: max 1 µM
# Method in brief: as §1
# [23] = compound: CC(=O)O[C@H]1C(=O)[C@@]2(C)[C@H]([C@H](OC(=O)c3ccccc3)[C@]3(O)C[C@H](OC(=O)[C@H](O)[C@@H](NC(=O)c4ccccc4)c4ccccc4)C(C)=C1C3(C)C)[C@]1(OC(C)=O)CO[C@@H]1C[C@@H]2O [Paclitaxel]; conditions: max 3 µM
# Method in brief: as §1
# [24] = compound: O=C(c1cc(Cc2n[nH]c(=O)c3ccccc23)ccc1F)N1CCN(C(=O)C2CC2)CC1 [Olaparib]; conditions: max 10 µM
# Method in brief: as §1
# [25] = compound: C[C@@H]1COCCN1C2=NC(=NC(=C2)C3(CC3)[S@](=N)(=O)C)C4=C5C=CNC5=NC=C4 [AZD6738]; conditions: max 10 µM
# Method in brief: as §1
# [26] = compound: CN(CC[C@H](CSC1=CC=CC=C1)NC2=C(C=C(C=C2)S(=O)(=O)NC(=O)C3=CC=C(C=C3)N4CCC(CC4)[C@H](C5=CC=CC=C5C6=CC=C(C=C6)Cl)O)S(=O)(=O)C(F)(F)F)CCO [AZD4320]; conditions: max 1 µM
# Method in brief: as §1
# [27] = compound: CC(C)n1c(=O)n(C)c2cnc3cc(F)c(-c4ccc(OCCCN5CCCCC5)nc4)cc3c21 [AZD1390]; conditions: max 0.3 µM
# Method in brief: as §1
# [28] = compound: C1CC(C1)(C(=O)[O-])C(=O)[O-].N.N.[Pt+2] [Carboplatin]; conditions: max 10 µM
# Method in brief: as §1
# [29] = compound: Cn1cnc2c(F)c(Nc3ccc(Br)cc3Cl)c(C(=O)NOCCO)cc21 [Selumetinib]
# Method in brief: as §1
# [30] = compound: C1CN(CCC1(C(=O)N[C@@H](CCO)C2=CC=C(C=C2)Cl)N)C3=NC=NC4=C3C=CN4 [AZD5363]; conditions: max 10 µM
# Method in brief: as §1
# [31] = compound: CC1=CN2[C@@H](C1)C=NC3=CC(=C(C=C3C2=O)OC)OCCCCCOC4=C(C=C5C(=C4)N=C[C@@H]6CC(=CN6C5=O)C)OC [SG3199]; conditions: max 0.001 µM
# Method in brief: as §1
# [32] = compound: COc1nnc2ccc(N3CCC(c4ccc(OCCN5CCN(C)C(=O)[C@H]5C)cc4)CC3)nn12 [AZD5153]; conditions: max 1 µM
# Method in brief: as §1
# [33] = compound: COc1cccc2c1C(=O)c1c(O)c3c(c(O)c1C2=O)C[C@@](O)(C(=O)CO)C[C@@H]3O[C@H]1C[C@H](N)[C@H](O)[C@H](C)O1 [Doxorubicin]; conditions: max 1 µM
# Method in brief: as §1
# [34] = compound: Cc1c2c(nn1C)CSCc1cc(n(C)n1)CSc1cc(c3ccccc3c1)OCCCc1c(C(=O)O)n(C)c3c-2c(Cl)ccc13 [AZD5991]; conditions: max 1 µM
# Method in brief: as §1
# [35] = compound: COc1cc([C@@H]2c3cc4c(cc3[C@@H](O[C@@H]3O[C@@H]5CO[C@@H](C)O[C@H]5[C@H](O)[C@H]3O)[C@H]3COC(=O)[C@H]23)OCO4)cc(OC)c1O [Etoposide]; conditions: max 10 µM
# Method in brief: as §1
# [36] = compound: C1CN(CCC1(C(=O)N[C@@H](CCO)C2=CC=C(C=C2)Cl)N)C3=NC=NC4=C3C=CN4 [Capivasertib]; conditions: max 3 µM
# Method in brief: as §1
Cell Line,"IC50, cell viability 72 h [1]","IC50, cell viability 72 h [2]","IC50, cell viability 72 h [3]","IC50, cell viability 72 h [4]","IC50, cell viability 72 h ([5]; max 10 µM)","IC50, cell viability 72 h [6]","IC50, cell viability 72 h [7]","IC50, cell viability 72 h [8]","IC50, cell viability 72 h [9]","IC50, cell viability 72 h [10]","IC50, cell viability 72 h [11]","IC50, cell viability 72 h [12]","IC50, cell viability 72 h [13]","IC50, cell viability 72 h [14]","IC50, cell viability 72 h [15]","IC50, cell viability 72 h [16]","IC50, cell viability 72 h [17]","IC50, cell viability 72 h [18]","IC50, cell viability 72 h [19]","IC50, cell viability 72 h [20]","IC50, cell viability 72 h [21]","IC50, cell viability 72 h [22]","IC50, cell viability 72 h [23]","IC50, cell viability 72 h [24]","IC50, cell viability 72 h [25]","IC50, cell viability 72 h [26]","IC50, cell viability 72 h [27]","IC50, cell viability 72 h [28]","IC50, cell viability 72 h ([29]; max 10 µM)","IC50, cell viability 72 h [30]","IC50, cell viability 72 h [31]","IC50, cell viability 72 h [32]","IC50, cell viability 72 h [33]","IC50, cell viability 72 h [34]","IC50, cell viability 72 h [35]","IC50, cell viability 72 h ([5]; max 3 µM)","IC50, cell viability 72 h [36]","IC50, cell viability 72 h ([29]; max 3 µM)"
LU-65 (Non-Small Cell Lung Carcinoma),> 10 µM,> 10 µM,0.0529 µM,0.77 µM,> 10 µM,> 0.3 µM,> 3 µM,> 1 µM,4.3 µM,> 10 µM,> 1 µM,> 1 µM,> 10 µM,0.35 µM,> 20 µM,> 10 µM,7.51 µM,0.0491 µM,3.01 µM,> 2 µM,> 10 µM,0.0896 µM,0.0321 µM,> 10 µM,3.97 µM,> 1 µM,> 0.3 µM,> 10 µM,1.65 µM,> 10 µM,> 0.001 µM,> 1 µM,0.341 µM,> 1 µM,> 10 µM,,,
Ca9-22 (Head and Neck Carcinoma),3.84 µM,> 10 µM,0.657 µM,0.714 µM,> 10 µM,0.0732 µM,> 3 µM,> 1 µM,> 10 µM,> 10 µM,> 1 µM,> 1 µM,> 10 µM,4.67 µM,> 20 µM,2.14 µM,9.4 µM,0.0105 µM,1.37 µM,0.229 µM,7.14 µM,0.0313 µM,0.00745 µM,> 10 µM,2.37 µM,> 1 µM,> 0.3 µM,> 10 µM,> 10 µM,> 10 µM,> 0.001 µM,0.35 µM,0.931 µM,> 1 µM,> 10 µM,,,
JVM-3 (B-Cell Non-Hodgkin's Lymphoma),,,0.27 µM,0.117 µM,,,> 3 µM,> 1 µM,,,> 1 µM,,> 10 µM,,,,,0.00205 µM,1.61 µM,,1.6 µM,0.00734 µM,,> 10 µM,4.32 µM,0.0809 µM,,,,,> 0.001 µM,,0.0843 µM,> 1 µM,,> 3 µM,> 3 µM,1.98 µM

# Reference: the supplement of paper PMC11061612
